Source: US20240000872A1, “NOVEL BACTERIOPHAGE THAT LYSES ACINETOBACTER GENUS BACTERIA HAVING RESISTANCE TO ANTIBIOTICS” (priority 2020, published 2024)

Tested on: Acinetobacter baumannii strains
Experiment: Antibiotic susceptibility test (CLSI disk diffusion test method, read per CLSI 2016); as to antibiotic susceptibility S/I/R: key: ‘S’ means susceptible; ‘I’ means intermediate; ‘R’ means resistant; as to antibiotic susceptibility class: key: ‘S’ means susceptible; ‘I’ means intermediate; ‘R’ means resistant; as to susceptibility category (S/I/R): key: ‘S’ means susceptible; ‘I’ means intermediate; ‘R’ means resistant
Type: cell-based
Design: antibiotic susceptibility test value / susceptibility test value (number given before S/I/R) / antibiotic susceptibility value: unit not given here

cortrimoxazole
antibiotic susceptibility class (host strain YMC14/01/C29): R | antibiotic susceptibility test value (host strain YMC14/01/C29): 320 | antibiotic susceptibility class (host strain YMC14/01/IP122): S | antibiotic susceptibility test value (host strain YMC14/01/IP122): 20 | antibiotic susceptibility class (host strain YMC14/01/L8): R | antibiotic susceptibility test value (host strain YMC14/01/L8): 320 | antibiotic susceptibility class (host strain YMC14/01/P31): R | antibiotic susceptibility test value (host strain YMC14/01/P31): 160 | antibiotic susceptibility class (host strain YMC14/01/P117): R | antibiotic susceptibility test value (host strain YMC14/01/P117): 160 | antibiotic susceptibility class (host strain YMC14/01/P224): R | antibiotic susceptibility test value (host strain YMC14/01/P224): 320 | antibiotic susceptibility class (host strain YMC14/01/P727): R | antibiotic susceptibility test value (host strain YMC14/01/P727): 320 | antibiotic susceptibility class (host strain YMC14/01/P728): R | antibiotic susceptibility test value (host strain YMC14/01/P728): 160 | antibiotic susceptibility class (host strain YMC14/01/R130): R | antibiotic susceptibility test value (host strain YMC14/01/R130): 320 | antibiotic susceptibility class (host strain YMC14/01/R160): R | antibiotic susceptibility test value (host strain YMC14/01/R160): 320 | antibiotic susceptibility class (host strain YMC14/01/R198): R | antibiotic susceptibility test value (host strain YMC14/01/R198): 320 | antibiotic susceptibility class (host strain YMC14/01/R257): R | antibiotic susceptibility test value (host strain YMC14/01/R257): 320 | antibiotic susceptibility class (host strain YMC14/01/R270): R | antibiotic susceptibility test value (host strain YMC14/01/R270): 320 | antibiotic susceptibility class (host strain YMC14/01/R324): R | antibiotic susceptibility test value (host strain YMC14/01/R324): 160 | antibiotic susceptibility class (host strain YMC14/01/R443): R | antibiotic susceptibility test value (host strain YMC14/01/R443): 320 | antibiotic susceptibility class (host strain YMC14/01/R451): R | antibiotic susceptibility test value (host strain YMC14/01/R451): 320 | antibiotic susceptibility class (host strain YMC14/01/R560): R | antibiotic susceptibility test value (host strain YMC14/01/R560): 160 | antibiotic susceptibility class (host strain YMC14/01/R617): R | antibiotic susceptibility test value (host strain YMC14/01/R617): 320 | antibiotic susceptibility class (host strain YMC14/01/R671): R | antibiotic susceptibility test value (host strain YMC14/01/R671): 320 | antibiotic susceptibility class (host strain YMC14/01/R732): R | antibiotic susceptibility test value (host strain YMC14/01/R732): 320 | antibiotic susceptibility class (host strain YMC14/01/R767): R | antibiotic susceptibility test value (host strain YMC14/01/R767): 160 | antibiotic susceptibility class (host strain YMC14/01/R904): S | antibiotic susceptibility test value (host strain YMC14/01/R904): 20 | antibiotic susceptibility class (host strain YMC14/01/R905): R | antibiotic susceptibility test value (host strain YMC14/01/R905): 320 | antibiotic susceptibility class (host strain YMC14/01/R921): S | antibiotic susceptibility test value (host strain YMC14/01/R921): 40 | antibiotic susceptibility class (host strain YMC14/01/R941): R | antibiotic susceptibility test value (host strain YMC14/01/R941): 320 | antibiotic susceptibility class (host strain YMC14/01/R958): R | antibiotic susceptibility test value (host strain YMC14/01/R958): 320 | antibiotic susceptibility class (host strain YMC14/01/R1006): R | antibiotic susceptibility test value (host strain YMC14/01/R1006): 320 | antibiotic susceptibility class (host strain YMC14/01/R1199): R | antibiotic susceptibility test value (host strain YMC14/01/R1199): 160 | antibiotic susceptibility class (host strain YMC14/01/R1659): R | antibiotic susceptibility test value (host strain YMC14/01/R1659): 320 | antibiotic susceptibility class (host strain YMC14/01/R1722): R | antibiotic susceptibility test value (host strain YMC14/01/R1722): 320 | antibiotic susceptibility class (host strain YMC14/01/R1752): S | antibiotic susceptibility test value (host strain YMC14/01/R1752): 20 | antibiotic susceptibility class (host strain YMC14/01/R2429): R | antibiotic susceptibility test value (host strain YMC14/01/R2429): 160 | antibiotic susceptibility class (host strain YMC14/01/R2572): R | antibiotic susceptibility test value (host strain YMC14/01/R2572): 320 | antibiotic susceptibility class (host strain YMC14/01/R2855): R | antibiotic susceptibility test value (host strain YMC14/01/R2855): 320 | antibiotic susceptibility class (host strain YMC14/01/R2945): R | antibiotic susceptibility test value (host strain YMC14/01/R2945): 160 | antibiotic susceptibility class (host strain YMC14/01/R3007): S | antibiotic susceptibility test value (host strain YMC14/01/R3007): 20 | antibiotic susceptibility class (host strain YMC14/01/R3129): S | antibiotic susceptibility test value (host strain YMC14/01/R3129): 20 | antibiotic susceptibility class (host strain YMC14/01/R3317): R | antibiotic susceptibility test value (host strain YMC14/01/R3317): 160 | antibiotic susceptibility class (host strain YMC14/01/R3474): R | antibiotic susceptibility test value (host strain YMC14/01/R3474): 160 | antibiotic susceptibility class (host strain YMC14/01/R3574): R | antibiotic susceptibility test value (host strain YMC14/01/R3574): 160 | antibiotic susceptibility class (host strain YMC14/01/U313): R | antibiotic susceptibility test value (host strain YMC14/01/U313): 320 | antibiotic susceptibility class (host strain YMC14/01/U318): R | antibiotic susceptibility test value (host strain YMC14/01/U318): 320 | antibiotic susceptibility class (host strain YMC14/02/L18): R | antibiotic susceptibility test value (host strain YMC14/02/L18): 160 | antibiotic susceptibility class (host strain YMC14/02/P47): R | antibiotic susceptibility test value (host strain YMC14/02/P47): 320 | antibiotic susceptibility class (host strain YMC14/02/R1860): R | antibiotic susceptibility test value (host strain YMC14/02/R1860): 320 | antibiotic susceptibility class (host strain YMC14/02/R2417): R | antibiotic susceptibility test value (host strain YMC14/02/R2417): 320 | antibiotic susceptibility class (host strain YMC14/02/R2599): S | antibiotic susceptibility test value (host strain YMC14/02/R2599): 20 | antibiotic susceptibility class (host strain YMC14/02/R2668): R | antibiotic susceptibility test value (host strain YMC14/02/R2668): 320 | antibiotic susceptibility class (host strain YMC14/02/R2758): R | antibiotic susceptibility test value (host strain YMC14/02/R2758): 320 | antibiotic susceptibility class (host strain YMC14/02/R2781): R | antibiotic susceptibility test value (host strain YMC14/02/R2781): 160 | antibiotic susceptibility class (host strain YMC14/02/R3106): R | antibiotic susceptibility test value (host strain YMC14/02/R3106): 320 | antibiotic susceptibility class (host strain YMC14/02/R3419): R | antibiotic susceptibility test value (host strain YMC14/02/R3419): 320 | antibiotic susceptibility class (host strain YMC14/02/U1607): S | antibiotic susceptibility test value (host strain YMC14/02/U1607): 20 | antibiotic susceptibility class (host strain YMC14/03/L9): R | antibiotic susceptibility test value (host strain YMC14/03/L9): 160 | antibiotic susceptibility class (host strain YMC14/03/P471): S | antibiotic susceptibility test value (host strain YMC14/03/P471): 20 | antibiotic susceptibility class (host strain YMC14/03/R122): S | antibiotic susceptibility test value (host strain YMC14/03/R122): 20 | antibiotic susceptibility class (host strain YMC14/03/R217): R | antibiotic susceptibility test value (host strain YMC14/03/R217): 160 | antibiotic susceptibility class (host strain YMC14/03/R380): R | antibiotic susceptibility test value (host strain YMC14/03/R380): 320 | antibiotic susceptibility class (host strain YMC14/03/R618): S | antibiotic susceptibility test value (host strain YMC14/03/R618): 20 | antibiotic susceptibility class (host strain YMC14/03/R2144): R | antibiotic susceptibility test value (host strain YMC14/03/R2144): 160 | antibiotic susceptibility class (host strain YMC14/03/U4616): R | antibiotic susceptibility test value (host strain YMC14/03/U4616): 160 | antibiotic susceptibility class (host strain YMC14/04/R1078): S | antibiotic susceptibility test value (host strain YMC14/04/R1078): 20 | antibiotic susceptibility class (host strain YMC14/04/R1080): S | antibiotic susceptibility test value (host strain YMC14/04/R1080): 20 | antibiotic susceptibility S/I/R (host strain YMC14/06/R2359): R | antibiotic susceptibility value (host strain YMC14/06/R2359): 320 | susceptibility category (S/I/R) (host strain YMC14/06/R2359): R | susceptibility test value (number given before S/I/R) (host strain YMC14/06/R2359): 320 | antibiotic susceptibility S/I/R (host strain YMC14/08/R1169): R | antibiotic susceptibility value (host strain YMC14/08/R1169): 320 | susceptibility category (S/I/R) (host strain YMC14/08/R1169): R | susceptibility test value (number given before S/I/R) (host strain YMC14/08/R1169): 320 | antibiotic susceptibility S/I/R (host strain YMC14/08/T90): R | antibiotic susceptibility value (host strain YMC14/08/T90): 320 | susceptibility category (S/I/R) (host strain YMC14/08/T90): R | susceptibility test value (number given before S/I/R) (host strain YMC14/08/T90): 320 | antibiotic susceptibility S/I/R (host strain YMC15/02/R436): R | antibiotic susceptibility value (host strain YMC15/02/R436): 320 | susceptibility category (S/I/R) (host strain YMC15/02/R436): R | susceptibility test value (number given before S/I/R) (host strain YMC15/02/R436): 320 | antibiotic susceptibility S/I/R (host strain YMC15/02/T28): R | antibiotic susceptibility value (host strain YMC15/02/T28): 320 | susceptibility category (S/I/R) (host strain YMC15/02/T28): R | susceptibility test value (number given before S/I/R) (host strain YMC15/02/T28): 320 | antibiotic susceptibility S/I/R (host strain YMC15/03/R1604): R | antibiotic susceptibility value (host strain YMC15/03/R1604): 320 | susceptibility category (S/I/R) (host strain YMC15/03/R1604): R | susceptibility test value (number given before S/I/R) (host strain YMC15/03/R1604): 320 | antibiotic susceptibility S/I/R (host strain YMC15/09/R1869): R | antibiotic susceptibility value (host strain YMC15/09/R1869): 320 | susceptibility category (S/I/R) (host strain YMC15/09/R1869): R | susceptibility test value (number given before S/I/R) (host strain YMC15/09/R1869): 320 | antibiotic susceptibility S/I/R (host strain YMC16/01/P11): R | antibiotic susceptibility value (host strain YMC16/01/P11): 320 | susceptibility category (S/I/R) (host strain YMC16/01/P11): R | susceptibility test value (number given before S/I/R) (host strain YMC16/01/P11): 320 | antibiotic susceptibility S/I/R (host strain YMC16/01/R123): R | antibiotic susceptibility value (host strain YMC16/01/R123): 160 | susceptibility category (S/I/R) (host strain YMC16/01/R123): R | susceptibility test value (number given before S/I/R) (host strain YMC16/01/R123): 160 | antibiotic susceptibility S/I/R (host strain YMC16/01/R198): R | antibiotic susceptibility value (host strain YMC16/01/R198): 160 | susceptibility category (S/I/R) (host strain YMC16/01/R198): R | susceptibility test value (number given before S/I/R) (host strain YMC16/01/R198): 160 | antibiotic susceptibility S/I/R (host strain YMC16/01/R353): R
